For assay [1], the system named is Escherichia coli. Nature of the assay: Inhibition of MATE-type HmrM in norfloxacin-resistant Escherichia coli KAM32 assessed as norfloxacin antibacterial activity efficacy at 30 uM measured for 18 hrs incubation by CLSI based microplate reader analysis relative to norfloxacin alone.
Assay [2] deals with Escherichia coli. Nature of the assay: Inhibition of MATE-type HmrM in norfloxacin-resistant Escherichia coli KAM32 assessed as norfloxacin antibacterial activity by measuring norfloxacin MIC measured for 18 hrs incubation by CLSI based microplate reader analysis.
Assay [3] in a line: Inhibition of MATE-type HmrM (unknown origin). Details: species or system Bacteria.
The subject of assay [4] is Bacteria. Nature of the assay: Inhibition of MATE-type HmrM (unknown origin) at 100 uM relative to control.
In assay [5] the test system is Escherichia coli. The assay is described as follows: Antibacterial activity against Norfloxacin sensitive Escherichia coli KAM32 harboring PBR322 assessed as inhibition of bacterial growth by measuring efficacy at 30 uM measured for 18 hrs by CLSI based analysis relative to control. The format is functional.
The test system of assay [6] is Escherichia coli. The assay is described as follows: Antibacterial activity against Norfloxacin resistant Escherichia coli KAM32 harboring PBR322 hmrM assessed as reduction in bacterial growth measured for 18 hrs by CLSI based analysis. The format is functional.
The test system of assay [7] is Escherichia coli. The assay is described as follows: Antibacterial activity against Norfloxacin resistant Escherichia coli KAM32 harboring PBR322 assessed as inhibition of bacterial growth by measuring efficacy at 30 uM measured for 18 hrs by CLSI based analysis relative to control. In kind it is functional.
Assay [8] concerns Escherichia coli. The assay is described as follows: Antibacterial activity against Norfloxacin sensitive Escherichia coli KAM32 harboring PBR322 assessed as reduction in bacterial growth measured for 18 hrs by CLSI based analysis. In kind it is functional.
For assay [9], the system named is Escherichia coli. Nature of the assay: Antibacterial activity against Escherichia coli KAM32 harboring PBR322 hmrM assessed as effect on bacterial growth at 10 uM measured for 30 hrs by microplate reader analysis. The format is functional, organism-based.

Structures are written as SMILES. Values after ≈ are worked out from the molar mass of the structure shown. Active and inactive are the calls of the source. No cut-off for these calls is given here.

With `CN/C(=N\C#N)NCCCC#Cc1cccc(S(F)(F)(F)(F)F)c1`, the Efficacy in assay [1] stood at 100%. Moreover, the MIC in [2] was 0.02 µg/mL (≈ 0.0546 µM).
The corresponding values for `Clc1cccc(CCCCCn2ccnc2)c1` are 38% and 0.04 µg/mL (≈ 0.161 µM).
In the case of `CN/C(=N\C#N)NCCC[C@H]1C[C@@H]1c1cccc(Cl)c1`, the Efficacy in assay [1] was found to be 57%. Moreover, in assay [2], the MIC is 0.032 µg/mL (≈ 0.11 µM).
As for `CN(C)/C(=N\C#N)N(C)CCCC#Cc1cccc(S(F)(F)(F)(F)F)c1`, the Efficacy in assay [1] stood at 100%. Moreover, the MIC in assay [2] was 0.014 µg/mL (≈ 0.0355 µM). In [3], the half-maximal effective concentration (EC50) stood at 6.8 µM.
In the case of `Clc1cccc(CCCCCN2CCOCC2)c1`, in assay [1], the Efficacy came to 0%. Further, the MIC in assay [2] worked out at 0.056 µg/mL (≈ 0.209 µM).
For `OCCCCCc1cccc(Cl)c1`, in that order: 0% and 0.056 µg/mL (≈ 0.282 µM).
In the case of `CN/C(=N\C#N)NCCC/C=C\c1cccc(Cl)c1`, the Efficacy in [1] was 71%. Moreover, the MIC in assay [2] came out at 0.026 µg/mL (≈ 0.0939 µM).
Take `CN/C(=N\C#N)NCCC/C=C/c1cccc(Cl)c1`: in assay [1], the Efficacy amounted to 71%. For the same molecule, in assay [2], the MIC came to 0.026 µg/mL (≈ 0.0939 µM).
Turning to `CN/C(=N\C#N)NCCCCCc1cccc(Br)c1`, the Efficacy in assay [1] stood at 19%. Moreover, in [2], the MIC was determined as 0.048 µg/mL (≈ 0.148 µM).
`CN/C(=N\C#N)NCCCCCc1cccc(S(C)(=O)=O)c1`: in assay [1], the Efficacy is 38%. Besides, the MIC in [2] is 0.04 µg/mL (≈ 0.124 µM).
For the molecule `CN/C(=N\C#N)NCCCNC(=O)c1cccc(Cl)c1`, in assay [1], the Efficacy worked out at 0%. The MIC in assay [2] worked out at 0.056 µg/mL (≈ 0.191 µM).
For `COCCCCCc1cccc(Cl)c1`, in that order: 0% and 0.056 µg/mL (≈ 0.263 µM).
`CN/C(=N/C#N)NCc1ccc(-c2cccc(Cl)c2)cc1`: the Efficacy in [1] stood at 100%. Besides, in [2], the MIC was found to be 0.014 µg/mL (≈ 0.0469 µM).
Turning to `CN/C(=N\C#N)NCc1cccc(-c2cccc(Cl)c2)c1`, the Efficacy in assay [1] came out at 38%. Also, the MIC in assay [2] is 0.04 µg/mL (≈ 0.134 µM).
As to `CN(C)/C(=N\C#N)N(C)CCCC#Cc1cccc(Cl)c1`, the Efficacy in [1] is 100%. Further, the MIC in [2] came out at 0.014 µg/mL (≈ 0.0462 µM). The molecule also had an EC50 in assay [3] of 6.8 µM.
With `CN/C(=N\C#N)NCCCCCc1cccc(S(F)(F)(F)(F)F)c1`, the Efficacy in assay [1] was found to be 71%. For the same molecule, the MIC in assay [2] amounted to 0.026 µg/mL (≈ 0.0702 µM).
As to `CN/C(=N\C#N)NCCCCCc1cccc(C)c1`, in [1], the Efficacy stood at 57%. The MIC in [2] came out at 0.032 µg/mL (≈ 0.124 µM).
Consider `CN/C(=N\C#N)NCCCCCc1cccc(C#N)c1`, for which, in assay [1], the Efficacy came out at 57%. Moreover, the MIC in assay [2] turned out to be 0.032 µg/mL (≈ 0.119 µM).
The corresponding values for `CN/C(=N\C#N)NCc1ccccc1-c1cccc(Cl)c1` are 38% and 0.04 µg/mL (≈ 0.134 µM).
For the molecule `CN/C(=N\C#N)NCCCCc1cccc(Cl)c1`, the Efficacy in assay [1] was determined as 38%. In addition, the MIC in [2] is 0.04 µg/mL (≈ 0.151 µM).
In the case of `CN/C(=N\C#N)NCCCCCc1cccc(F)c1`, the Efficacy in assay [1] was determined as 38%; in assay [4], 92%. The MIC in assay [2] stood at 0.04 µg/mL (≈ 0.152 µM). In [3], the concentration giving a half-maximal response (EC50) was above 30 µM.
Regarding `CN/C(=N\C#N)NCCCCCc1cccc(I)c1`, the Efficacy in [1] is 0%. The MIC in assay [2] was found to be 0.056 µg/mL (≈ 0.151 µM).
Turning to `CN/C(=N\C#N)NCCC[C@@H]1C[C@@H]1c1cccc(Cl)c1`, in assay [1], the Efficacy amounted to 57%. For the same molecule, the MIC in assay [2] was 0.032 µg/mL (≈ 0.11 µM).
For `CN/C(=N\C#N)NCCCCCc1cccc(NS(C)(=O)=O)c1`, in assay [1], the Efficacy is 38%. Moreover, the MIC in assay [2] stood at 0.04 µg/mL (≈ 0.119 µM).
For `CCn1cc(C(=O)O)c(=O)c2cc(F)c(N3CCNCC3)cc21` [NORFLOXACIN], the Efficacy in assay [5] is listed as 100%; in assay [7], 0%. In addition, the MIC was 0.056 µg/mL (≈ 0.175 µM) in assay [6] and 0.014 µg/mL (≈ 0.0438 µM) in assay [8].
With `CN(C)/C(=N\C#N)N(C)Cc1ccc(-c2cccc(S(F)(F)(F)(F)F)c2)cc1`, the outcome in assay [9] was inactive. The Efficacy in assay [1] stood at 100%. The MIC in [2] is 0.014 µg/mL (≈ 0.0335 µM). Also, in assay [3], the EC50 turned out to be 1.8 µM.
As to `CN(C)/C(=N\C#N)N(C)Cc1ccc(-c2cccc(Cl)c2)cc1`, the Efficacy in assay [1] was found to be 100%. For the same molecule, the MIC in assay [2] worked out at 0.014 µg/mL (≈ 0.0428 µM). Also, it took 4 µM to reach a half-maximal effect in assay [3] (EC50).
Consider `CN(C)/C(=N\C#N)N(C)CCCCCc1cccc(Cl)c1`, for which, in assay [1], the Efficacy is 71%. Besides, the MIC in [2] was determined as 0.026 µg/mL (≈ 0.0847 µM).
Regarding `C#Cc1cccc(CCCCCN/C(=N/C#N)NC)c1`, the Efficacy in assay [1] came out at 57%. Also, the MIC in assay [2] was 0.04 µg/mL (≈ 0.149 µM).
For `CN/C(=N\C#N)NCCCCCc1cccc(Cl)c1`, in that order: 57% and 0.032 µg/mL (≈ 0.115 µM).
With `CN/C(=N\C#N)NCCCC#Cc1cccc(Cl)c1`, the Efficacy in assay [1] is 71%. Also, in assay [2], the MIC came to 0.026 µg/mL (≈ 0.0946 µM).
On to `CN/C(=N/C#N)NCC#CC#Cc1cccc(Cl)c1`, for which, in assay [1], the Efficacy was 0%. The MIC in assay [2] amounted to 0.056 µg/mL (≈ 0.207 µM).

Source of the values: ChEMBL document CHEMBL5523687, “Pentafluorosulfanyl-substituted biaryl derivatives as MATE-type transporter inhibitors targeting drug-resistant bacteria” (Bioorg Med Chem, 2024).
